Measured values published in ChEMBL document CHEMBL1201862, “PubChem BioAssay data set” (2004).
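Each compound was tested at five concentrations against cells in 96-well plates for 48 hours. GI50 is the concentration that inhibits growth by half.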 The source made the active and inactive calls. No stated cut-off is given here; in the data, active = GI50 up to about 1.1 µM and inactive = higher.

How the values were obtained:
Assay in all cases: inhibition of tumour cell growth, NCI panel, 48 h
LOX IMVI = test system: LOX IMVI
OVCAR-3 = test system: OVCAR-3
RXF 393 = test system: RXF 393
SK-OV-3 = test system: SK-OV-3
SW-620 = test system: SW-620
786-0 = test system: 786-0
CAKI-1 = test system: CAKI-1
UACC-257 = test system: UACC-257
SF-268 = test system: SF-268
SK-MEL-28 = test system: SK-MEL-28
HOP-62 = test system: HOP-62
COLO 205 = test system: COLO 205
SF-539 = test system: SF-539
DMS-273 = test system: DMS-273
HCC 2998 = test system: HCC 2998
SN12C = test system: SN12C
OVCAR-5 = test system: OVCAR-5

Measured: GI50

CC(C)(C)OC(=O)N[C@H]1CC(O)c2ccccc2N(CC(=O)O)C1=O (some centres undefined)
inactive: LOX IMVI > 100 µM | OVCAR-3 > 100 µM | RXF 393 > 100 µM | SK-OV-3 > 100 µM | SW-620 > 100 µM | 786-0 > 100 µM | CAKI-1 > 100 µM | UACC-257 > 100 µM | SF-268 > 100 µM | SK-MEL-28 > 100 µM | HOP-62 > 100 µM | COLO 205 > 100 µM | SF-539 > 100 µM | DMS-273 > 100 µM | HCC 2998 > 100 µM | SN12C > 100 µM

N=C(N)/N=C(/C=C/c1ccccc1)CC1OC(=O)c2ccccc21 (centres undefined)
inactive: LOX IMVI > 100 µM | RXF 393 > 100 µM | SW-620 > 100 µM | 786-0 > 100 µM | CAKI-1 > 100 µM | UACC-257 > 100 µM | SF-268 61.1 µM | HOP-62 > 100 µM | COLO 205 > 100 µM | SF-539 > 100 µM | DMS-273 > 100 µM | HCC 2998 > 100 µM | SN12C > 100 µM

CC12Oc3ccc4ccccc4c3CC1Cc1c(ccc3ccccc13)O2 (centres undefined)
inactive: LOX IMVI 56.2 µM | RXF 393 27.2 µM | SW-620 > 100 µM | 786-0 40.2 µM | CAKI-1 48 µM | UACC-257 50.4 µM | SF-268 > 100 µM | OVCAR-5 > 100 µM | SK-MEL-28 > 100 µM | HOP-62 53 µM | COLO 205 > 100 µM | SF-539 60.4 µM | DMS-273 18.8 µM | HCC 2998 > 100 µM

Cc1cc(=O)oc2cc3c(cc12)Oc1ccccc1O3
inactive: LOX IMVI 54.6 µM | OVCAR-3 > 100 µM | RXF 393 > 100 µM | SK-OV-3 99.8 µM | SW-620 > 100 µM | 786-0 > 100 µM | UACC-257 > 100 µM | SF-268 38.3 µM | OVCAR-5 > 100 µM | SK-MEL-28 > 100 µM | HOP-62 > 100 µM | COLO 205 > 100 µM | SF-539 18.1 µM | DMS-273 > 100 µM | HCC 2998 > 10 µM | SN12C > 100 µM

CCOC(=O)[C@H]1Nc2ccc([N+](=O)[O-])cc2C2c3ccccc3CC21 (some centres undefined)
inactive: LOX IMVI 17.9 µM | OVCAR-3 9.84 µM | RXF 393 4.53 µM | SW-620 11.9 µM | 786-0 19.7 µM | CAKI-1 27.8 µM | UACC-257 18.7 µM | SF-268 16.5 µM | OVCAR-5 16.6 µM | SK-MEL-28 12.1 µM | HOP-62 18.9 µM | COLO 205 30.9 µM | SF-539 17.3 µM | DMS-273 12.6 µM | HCC 2998 21.3 µM | SN12C 15.5 µM

Cc1cc2c(C)n(Cc3ccc(Cl)cc3Cl)nc2c(C(=O)O)c1C
inactive: LOX IMVI > 100 µM | OVCAR-3 > 100 µM | RXF 393 > 100 µM | SK-OV-3 > 100 µM | SW-620 > 100 µM | 786-0 > 100 µM | UACC-257 > 100 µM | SF-268 > 100 µM | OVCAR-5 > 100 µM | SK-MEL-28 > 100 µM | HOP-62 > 100 µM | COLO 205 > 100 µM | SF-539 > 100 µM | DMS-273 > 100 µM | HCC 2998 > 100 µM | SN12C 63.4 µM

C1=CC2SSSC2C1 (centres undefined)
inactive: LOX IMVI > 100 µM | OVCAR-3 > 100 µM | RXF 393 > 100 µM | SK-OV-3 > 100 µM | SW-620 > 100 µM | 786-0 > 100 µM | UACC-257 > 100 µM | SF-268 > 100 µM | OVCAR-5 > 100 µM | SK-MEL-28 > 100 µM | HOP-62 > 100 µM | COLO 205 > 100 µM | SF-539 > 100 µM | DMS-273 > 100 µM | HCC 2998 > 100 µM | SN12C > 100 µM

CC(=O)NC(CCCNC(=O)N(CCCl)N=O)C(=O)NCc1ccccc1 (centres undefined)
inactive: OVCAR-3 > 100 µM | RXF 393 > 100 µM | SW-620 > 100 µM | 786-0 6.87 µM | CAKI-1 > 100 µM | UACC-257 > 100 µM | SF-268 6.53 µM | SK-MEL-28 > 100 µM | HOP-62 40 µM | COLO 205 > 100 µM | SF-539 11.7 µM | DMS-273 > 100 µM | HCC 2998 > 100 µM | SN12C 91.4 µM

COc1cccc(NC(=O)CSc2nnc(Cc3ccccc3)o2)c1
inactive: LOX IMVI > 100 µM | OVCAR-3 > 100 µM | RXF 393 > 100 µM | SK-OV-3 > 100 µM | SW-620 > 100 µM | 786-0 > 100 µM | CAKI-1 > 100 µM | UACC-257 > 100 µM | SF-268 > 100 µM | OVCAR-5 > 100 µM | SK-MEL-28 > 100 µM | HOP-62 > 100 µM | COLO 205 > 100 µM | SF-539 > 100 µM | DMS-273 > 100 µM | HCC 2998 > 100 µM | SN12C > 100 µM

Cc1ccccc1C1SCc2nc3ccccc3n21 (centres undefined)
inactive: OVCAR-3 > 100 µM | RXF 393 > 100 µM | SK-OV-3 > 100 µM | 786-0 > 100 µM | CAKI-1 > 100 µM | UACC-257 4.26 µM | SF-268 > 100 µM | OVCAR-5 3.38 µM | SK-MEL-28 23.6 µM | COLO 205 > 100 µM | SF-539 70.1 µM | DMS-273 4.6 µM | HCC 2998 > 100 µM | SN12C > 100 µM

CCOc1ccc(NCC2CC/C(=C\c3ccc(Cl)cc3)C2=O)cc1 (centres undefined)
inactive: LOX IMVI 19.4 µM | OVCAR-3 > 36.9 µM | RXF 393 > 47.9 µM | SK-OV-3 > 100 µM | SW-620 17.1 µM | 786-0 13 µM | CAKI-1 > 45.1 µM | UACC-257 > 38.9 µM | SF-268 > 55.2 µM | OVCAR-5 > 100 µM | SK-MEL-28 50.2 µM | HOP-62 > 100 µM | COLO 205 > 37.9 µM | SF-539 > 41.7 µM | DMS-273 > 39.8 µM | HCC 2998 13 µM | SN12C > 42.8 µM

COc1cc(CC2c3cc(OC)c(OC)cc3CCN2C)c(C(=O)O)cc1OC (centres undefined)
inactive: LOX IMVI > 100 µM | OVCAR-3 > 100 µM | RXF 393 > 100 µM | SK-OV-3 > 100 µM | SW-620 > 100 µM | 786-0 > 100 µM | UACC-257 > 100 µM | SF-268 > 100 µM | OVCAR-5 > 100 µM | SK-MEL-28 > 100 µM | HOP-62 > 100 µM | COLO 205 > 100 µM | SF-539 > 100 µM | DMS-273 > 100 µM | HCC 2998 > 100 µM | SN12C > 100 µM

NN/C(Cc1ccccc1)=N/NC(N)=S
inactive: LOX IMVI 82.6 µM | RXF 393 > 100 µM | SK-OV-3 > 100 µM | SW-620 > 100 µM | 786-0 > 100 µM | UACC-257 > 100 µM | SF-268 > 100 µM | OVCAR-5 > 100 µM | SK-MEL-28 > 100 µM | HOP-62 > 100 µM | COLO 205 > 100 µM | SF-539 > 100 µM | DMS-273 > 100 µM | HCC 2998 > 100 µM
